Measured values published in ChEMBL document CHEMBL1201862, “PubChem BioAssay data set” (2004).
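Five compound concentrations were applied to cells in 96-well plates for 48 hours; endpoints were derived by simple linear interpolation of the resulting dose-response curve. GI50: concentration for 50% inhibition of growth.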 The source made the active and inactive calls. Rule as the data show it: active = GI50 up to about 1.1 µM and inactive = higher.

Key:
Assay in all cases: NCI tumour cell line growth inhibition, 48 h
[1] = test system: HCC 2998
[2] = test system: OVCAR-3
[3] = test system: KM-20L2
[4] = test system: UO-31
[5] = test system: LOX IMVI
[6] = test system: SF-539
[7] = test system: Hs-578T
[8] = test system: HL-60
[9] = test system: NCI-H23
[10] = test system: HOP-62
[11] = test system: HOP-18
[12] = test system: 786-0
[13] = test system: NCI/ADR-RES
[14] = test system: RXF 393
[15] = test system: T47D
[16] = test system: DLD-1
[17] = test system: UACC-257
[18] = test system: SR
[19] = test system: SF-268
[20] = test system: COLO 205
[21] = test system: SF-295
[22] = test system: HCT-116
[23] = test system: OVCAR-5
[24] = test system: SK-MEL-2
[25] = test system: SK-OV-3
[26] = test system: NCI-H226
[27] = test system: DMS-114
[28] = test system: ACHN
[29] = test system: HOP-92
[30] = test system: RPMI-8226
[31] = test system: SNB-19
[32] = test system: SW-620
[33] = test system: A549
[34] = test system: UACC-62
[35] = test system: SN12C
[36] = test system: Malme-3M
[37] = test system: OVCAR-8
[38] = test system: CCRF-CEM
[39] = test system: MDA-N
[40] = test system: M19-MEL
[41] = test system: BT-549
[42] = test system: DU-145
[43] = test system: IGROV-1
[44] = test system: NCI-H522
[45] = test system: PC-3
[46] = test system: MDA-MB-435
[47] = test system: HT-29
[48] = test system: SK-MEL-5
[49] = test system: HCT-15
[50] = test system: MCF7
[51] = test system: SNB-78
[52] = test system: U-251
[53] = test system: TK-10
[54] = test system: M14
[55] = test system: CAKI-1
[56] = test system: OVCAR-4
[57] = test system: SNB-75
[58] = test system: A498
[59] = test system: MOLT-4
[60] = test system: DMS-273
[61] = test system: NCI-H460
[62] = test system: K562
[63] = test system: EKVX
[64] = test system: MDA-MB-231
[65] = test system: SK-MEL-28
[66] = test system: KM12
[67] = test system: XF498
[68] = test system: LXFL 529

CNC(=O)OCc1nc(SC)n(C)c1COC(=O)NC
GI50 [1]: 122 µM (inactive) | GI50 [2]: 187 µM (inactive) | GI50 [3]: 177 µM (inactive) | GI50 [4]: 185 µM (inactive) | GI50 [5]: 133 µM (inactive) | GI50 [6]: 133 µM (inactive) | GI50 [7]: 195 µM (inactive) | GI50 [8]: 55.2 µM (inactive) | GI50 [9]: 130 µM (inactive) | GI50 [10]: 38.5 µM (inactive) | GI50 [11]: 232 µM (inactive) | GI50 [12]: 139 µM (inactive) | GI50 [13]: 204 µM (inactive) | GI50 [14]: 50.8 µM (inactive) | GI50 [15]: 171 µM (inactive) | GI50 [16]: 183 µM (inactive) | GI50 [17]: 103 µM (inactive) | GI50 [18]: 71.4 µM (inactive) | GI50 [19]: 119 µM (inactive) | GI50 [20]: 146 µM (inactive) | GI50 [21]: 187 µM (inactive) | GI50 [22]: 167 µM (inactive) | GI50 [23]: 170 µM (inactive) | GI50 [24]: 119 µM (inactive) | GI50 [25]: 63 µM (inactive) | GI50 [26]: 83.8 µM (inactive) | GI50 [27]: 80.5 µM (inactive) | GI50 [28]: 64.1 µM (inactive) | GI50 [29]: 111 µM (inactive) | GI50 [30]: 117 µM (inactive) | GI50 [31]: 233 µM (inactive) | GI50 [32]: 172 µM (inactive) | GI50 [33]: 242 µM (inactive) | GI50 [34]: 60.1 µM (inactive) | GI50 [35]: 103 µM (inactive) | GI50 [36]: 113 µM (inactive) | GI50 [37]: 182 µM (inactive) | GI50 [38]: 44.8 µM (inactive) | GI50 [39]: 161 µM (inactive) | GI50 [40]: 182 µM (inactive) | GI50 [41]: 118 µM (inactive) | GI50 [42]: > 81.3 µM (inactive) | GI50 [43]: 175 µM (inactive) | GI50 [44]: 74.1 µM (inactive) | GI50 [45]: 171 µM (inactive) | GI50 [46]: 161 µM (inactive) | GI50 [47]: 205 µM (inactive) | GI50 [48]: 153 µM (inactive) | GI50 [49]: 171 µM | GI50 [50]: 132 µM (inactive) | GI50 [51]: 68.4 µM (inactive) | GI50 [52]: 166 µM (inactive) | GI50 [53]: 177 µM (inactive) | GI50 [54]: 164 µM (inactive) | GI50 [55]: 87.7 µM (inactive) | GI50 [56]: 129 µM (inactive) | GI50 [57]: 167 µM (inactive) | GI50 [58]: 198 µM (inactive) | GI50 [59]: 26.4 µM (inactive) | GI50 [60]: 86.5 µM (inactive) | GI50 [61]: 59.6 µM (inactive) | GI50 [62]: 147 µM (inactive) | GI50 [63]: 230 µM (inactive) | GI50 [64]: 187 µM (inactive) | GI50 [65]: 188 µM (inactive) | GI50 [66]: 191 µM (inactive) | GI50 [67]: 253 µM (inactive)

COc1ccc(Br)c(C(=O)N2CCc3ccccc32)c1N
GI50 [1]: 30 µM (inactive) | GI50 [2]: 27.5 µM (inactive) | GI50 [3]: 69.5 µM (inactive) | GI50 [4]: 33.8 µM (inactive) | GI50 [5]: 93.1 µM (inactive) | GI50 [6]: 27.5 µM (inactive) | GI50 [8]: 40.6 µM (inactive) | GI50 [9]: 44.9 µM (inactive) | GI50 [68]: 59.8 µM (inactive) | GI50 [10]: 42.3 µM (inactive) | GI50 [11]: 47.9 µM (inactive) | GI50 [12]: 42.4 µM (inactive) | GI50 [14]: 55.2 µM (inactive) | GI50 [16]: 42.9 µM (inactive) | GI50 [17]: 29.9 µM (inactive) | GI50 [18]: 20.3 µM (inactive) | GI50 [20]: 66.1 µM (inactive) | GI50 [21]: 46.2 µM (inactive) | GI50 [22]: 42.2 µM (inactive) | GI50 [23]: > 100 µM (inactive) | GI50 [24]: 25.1 µM (inactive) | GI50 [25]: 30.5 µM (inactive) | GI50 [26]: 58.6 µM (inactive) | GI50 [27]: 30.4 µM (inactive) | GI50 [28]: 49 µM (inactive) | GI50 [29]: > 100 µM (inactive) | GI50 [30]: 40.6 µM (inactive) | GI50 [31]: 63 µM (inactive) | GI50 [32]: 49.1 µM (inactive) | GI50 [33]: 59.6 µM (inactive) | GI50 [34]: 43.8 µM (inactive) | GI50 [35]: 41.8 µM (inactive) | GI50 [36]: 66.4 µM (inactive) | GI50 [37]: 32.3 µM (inactive) | GI50 [38]: 33.4 µM (inactive) | GI50 [40]: 45.6 µM (inactive) | GI50 [43]: 70.5 µM (inactive) | GI50 [44]: 16.7 µM (inactive) | GI50 [47]: 52 µM (inactive) | GI50 [48]: 40.2 µM (inactive) | GI50 [49]: 29.2 µM | GI50 [51]: > 100 µM (inactive) | GI50 [52]: 33.9 µM (inactive) | GI50 [53]: 42.9 µM (inactive) | GI50 [54]: 32.9 µM (inactive) | GI50 [56]: 34.8 µM (inactive) | GI50 [57]: 26.9 µM (inactive) | GI50 [59]: 31.3 µM (inactive) | GI50 [60]: 15.7 µM (inactive) | GI50 [61]: 36 µM (inactive) | GI50 [62]: 30.2 µM (inactive) | GI50 [65]: 52.7 µM (inactive) | GI50 [66]: 34.2 µM (inactive) | GI50 [67]: 31.9 µM (inactive)
